In patent US20240166660A1, “KRAS G12C INHIBITORS” (BeiGene Switzerland GmbH, priority 2021, published 2024):
pIC50: −log10 of the molar value.

Molecular target: KRAS (aa 1-169) G12C, C51S, C80L, C118S (Homo sapiens (Human), UniProt P01116, C118S/C51S/C80L/G12C)
Assay: Biochemical functional assay: SOS1-mediated nucleotide exchange of GDP-loaded KRAS G12C, binding to GST-cRaf RBD, FRET readout
Conditions: 3 hrs pre-incubation with compound at 24° C., SOS1, GTPyS, inhibition of nucleotide exchange
Outline: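 GDP-loaded His-tagged KRAS construct preincubated with compound 3 h at 24° C in 25 mM HEPES pH7.5, 10 mM MgCl2, 0.01% Triton X-100; SOS1 (aa 564-1049), GTPγS and GST-cRaf RBD added for 3 h, then anti-His Tb cryptate/anti-GST XL665 for 3 h. HTRF 665/620 ratio; IC50 by four-parameter logistic fit.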

KRAS (aa 1-169) G12C, C51S, C80L, C118S, sequence (P01116 other isoform, or with tags, fused parts or gaps G12C/C51S/C80L/C118S): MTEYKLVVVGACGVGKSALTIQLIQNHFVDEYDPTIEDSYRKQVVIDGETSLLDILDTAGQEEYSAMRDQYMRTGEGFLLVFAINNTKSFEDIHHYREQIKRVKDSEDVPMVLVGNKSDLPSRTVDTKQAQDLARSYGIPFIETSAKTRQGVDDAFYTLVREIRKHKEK

Row | SMILES | pIC50
1 | C=CC(=O)N1C[C@H](C)N(c2nc(OC[C@@H]3CCCN3C)nc3cc(-c4cccc5cccc(Cl)c45)c4ccoc4c23)C[C@H]1C [Compound B52, 1-((2R,5S)-4-(4-(8-chloronaphthalen-1-yl)-7-(((S)-1-methylpyrrolidin-2-yl)methoxy)furo[2,3-f]quinazolin-9-yl)-2,5-dimethylpiperazin-1-yl)prop-2-en-1-one] | 6.18
2 | C=CC(=O)N1CCN(c2ncnc3cc(-c4c(C)c(Cl)cc5[nH]ncc45)c4c(c23)OCCC4)C[C@@H]1CC#N [Compound A26, 2-((2S)-1-acryloyl-4-(5-(6-chloro-5-methyl-1H-indazol-4-yl)-3,4-dihydro-2H-pyrano[2,3-f]quinazolin-10-yl)piperazin-2-yl)acetonitrile] | 8.00
3 | C=C(F)C(=O)N1CCN(c2nc(OC[C@@H]3CCCN3C)nc3cc(-c4c(F)c(Cl)cc5[nH]ncc45)c4c(c23)OCCC4)C[C@@H]1CC#N [Compound B42, 2-((2S)-4-(5-(6-chloro-5-fluoro-1H-indazol-4-yl)-8-(((S)-1-methylpyrrolidin-2-yl)methoxy)-3,4-dihydro-2H-pyrano[2,3-f]quinazolin-10-yl)-1-(2-fluoroacryloyl)piperazin-2-yl)acetonitrile] | 7.37
4 | C=CC(=O)N1CCN(c2nc(OC[C@@H]3CCCN3C)nc3cc(-c4cccc5cccc(Cl)c45)c4ccoc4c23)[C@@H](C)C1 [Compound B49, 1-((S)-4-(4-(8-chloronaphthalen-1-yl)-7-(((S)-1-methylpyrrolidin-2-yl)methoxy)furo[2,3-f]quinazolin-9-yl)-3-methylpiperazin-1-yl)prop-2-en-1-one] | 6.89
5 | C=CC(=O)N1CCN(c2nc(OC[C@@H]3CCCN3C)nc3cc(-c4ccccc4C4CC4)c4ccoc4c23)CC1 [Compound B58, (S)-1-(4-(4-(2-cyclopropylphenyl)-7-((1-methylpyrrolidin-2-yl)methoxy)furo[2,3-f]quinazolin-9-yl)piperazin-1-yl)prop-2-en-1-one] | 6.02
6 | C=CC(=O)N1CC2(CCN(c3nc(OC[C@@H]4CCCN4C)nc4cc(-c5cccc6cccc(Cl)c56)c5ccoc5c34)CC2)C1 [Compound B51, (S)-1-(7-(4-(8-chloronaphthalen-1-yl)-7-((1-methylpyrrolidin-2-yl)methoxy)furo[2,3-f]quinazolin-9-yl)-2,7-diazaspiro[3.5]nonan-2-yl)prop-2-en-1-one] | 6.00
7 | C=C(F)C(=O)N1CCN(c2nc(OC[C@@H]3CCCN3C)nc3cc(-c4ccccc4F)c4c(c23)OCCC4)C[C@@H]1CC#N [Compound B31, 2-((S)-1-(2-fluoroacryloyl)-4-(5-(2-fluorophenyl)-8-(((S)-1-methylpyrrolidin-2-yl)methoxy)-3,4-dihydro-2H-pyrano[2,3-f]quinazolin-10-yl)piperazin-2-yl)acetonitrile] | 6.01
